Reference: PMC3071284 (Bioorganic & medicinal chemistry, 2011)

Columns and labels:
[1] = molecular target: T1, T. cruzi farnesyl diphosphate synthase (TcFPPS) (Trypanosoma cruzi, UniProt Q8WS26); settings: cited from earlier work
T1 sequence (Q8WS26 64-425 limits assumed): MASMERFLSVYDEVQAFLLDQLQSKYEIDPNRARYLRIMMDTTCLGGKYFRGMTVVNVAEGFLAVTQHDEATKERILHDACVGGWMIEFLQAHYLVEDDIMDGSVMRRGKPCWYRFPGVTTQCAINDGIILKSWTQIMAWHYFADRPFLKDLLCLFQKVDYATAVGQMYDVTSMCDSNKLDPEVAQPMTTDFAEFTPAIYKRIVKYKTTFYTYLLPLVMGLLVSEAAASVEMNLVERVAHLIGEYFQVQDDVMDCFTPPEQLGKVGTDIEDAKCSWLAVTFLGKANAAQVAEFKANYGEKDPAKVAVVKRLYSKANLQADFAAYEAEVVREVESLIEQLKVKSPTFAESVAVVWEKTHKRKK

T. gondii tachyzoites = T. gondii tachyzoites growth inhibition assay; type: cell-based, Toxoplasma gondii; settings: result in words
[2] = cited from earlier work
T. cruzi-infected mice = settings: cited from earlier work

For CCCCCCNCC(P(=O)(O)O)P(=O)(O)O [Compound 8], the “mode of inhibition of TcFPPS” value [1] is listed as “competitive inhibitor”.
For CCCCCCCCCCNCC(P(=O)(O)O)P(=O)(O)O [Compound 24, 1-[(n-Dec-1-ylamino)ethyl] 1,1-bisphosphonic Acid], the “antiparasitic activity against T. gondii cells” value (T. gondii tachyzoites) was “practically devoid of antiparasitic activity”.
In the case of CN(C)c1ccc(C(=C2C=CC(=[N+](C)C)C=C2)c2ccc(N(C)C)cc2)cc1 [Crystal violet], the “carcinogenicity in in vivo assays” value [2] is given as “carcinogenic”.
For O=P(O)(O)C(O)(Cc1cccnc1)P(=O)(O)O [risedronate], the “survival of T. cruzi-infected mice” value (T. cruzi-infected mice) is given as “significantly increase survival”.
